Target: T1, recombinant human cGAS (aa147-522) (Homo sapiens, UniProt Q8N884)
T1 construct: recombinant human cGAS (aa147-522); His6-SUMO (cleaved yes); made in house; host or cells: E. coli BL21/pLys
Assay: In vitro inhibition assay of cGAS activity (ATP consumption, KinaseGlo Max)
Format: biochemical
Conditions: Table 2, read-out: cGAS Inhibition Results IC50
In short: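 De-tagged recombinant human cGAS (aa147-522, 1.5 μg/mL) was incubated 20 min at 37 °C with herring testis DNA, 6.6 μM ATP and 0.1 mM GTP in Tris pH 7.5/MgCl2 buffer plus serial compound dilutions. Remaining ATP was read by KinaseGlo Max luminescence, and IC50 was fitted from % ATP consumption versus log concentration.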

T1 sequence (Q8N884 147-522): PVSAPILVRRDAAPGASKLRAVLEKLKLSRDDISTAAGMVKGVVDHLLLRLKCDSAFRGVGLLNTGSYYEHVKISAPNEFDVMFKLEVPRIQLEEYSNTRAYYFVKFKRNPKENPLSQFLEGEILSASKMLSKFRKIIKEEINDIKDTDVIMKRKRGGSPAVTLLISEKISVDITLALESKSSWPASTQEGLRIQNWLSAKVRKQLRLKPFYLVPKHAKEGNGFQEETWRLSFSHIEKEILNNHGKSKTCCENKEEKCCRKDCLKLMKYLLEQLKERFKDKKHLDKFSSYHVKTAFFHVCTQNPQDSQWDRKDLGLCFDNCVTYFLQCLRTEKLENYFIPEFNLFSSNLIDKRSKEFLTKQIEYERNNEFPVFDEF

| SMILES | IC50 [nM] |
| --- | --- |
| CN(CCNS(C)(=O)=O)c1cc(-n2ccnc2)c2ccc(Cl)cc2n1 [I-234] | < 2000 |
| O=S(=O)(O)CC(Cc1ccccc1)Nc1cc(-n2ccnc2)c2ccc(Cl)c(Cl)c2n1 (stereo not shown) [I-162, 2-((7,8-dichloro-4-(1H-imidazol-1-yl)quinolin-2-yl)amino)-3-phenylpropane-1-sulfonic acid] | > 30000 |
| O=C(O)[C@@H]1C[C@@H](F)CN1c1cc(-c2cn[nH]c2)c2ccc(Cl)c(Cl)c2n1 [I-430] | < 2000 |
| CC(C)(NC(=O)C[C@@H]1CCCN1c1cc(-n2ccnc2)c2ccc(Cl)c(Cl)c2n1)C(=O)O [I-387] | < 2000 |
| CN(C)S(=O)(=O)CCNc1cc(-n2ccnc2)c2ccc(Cl)c(Cl)c2n1 [I-202] | < 2000 |
| COC(=O)[C@H]1CCCN(c2cc(-n3ccnc3)c3ccc(Cl)cc3n2)C1 [I-356] | > 30000 |
| Clc1ccc2c(-c3cn[nH]c3)cc(-c3ccccc3)nc2c1 [I-67] | 2000 to 30000 |
| O=C(O)CCNC(=O)[C@H]1CN(c2cc(-c3cn[nH]c3)c3ccc(Cl)c(Cl)c3n2)CCO1 [I-344] | < 2000 |
| Cc1cc(NCCC(=O)O)c2ccc(Cl)c(Cl)c2n1 [I-309] | > 30000 |
| CS(=O)(=O)N1CCN(c2cc(-n3ccnc3)c3ccc(Cl)cc3n2)CC1 [I-78, 7-chloro-4-(1H-imidazol-1-yl)-2-(4-(methylsulfonyl)piperazin-1-yl) quinoline] | > 30000 |
| C[C@H](CC(=O)O)Nc1cc(-n2ccnc2)c2ccc(Cl)c(Cl)c2n1 [I-185] | 2000 to 30000 |
| O=C(O)c1ccc(Cl)c(-c2cc(-n3ccnc3)c3ccc(Cl)cc3n2)c1 [I-31] | > 30000 |
| COC(=O)C1CCN(c2cc(-n3ccnc3)c3ccc(Cl)cc3n2)CC1 [I-131] | 2000 to 30000 |
| CC(C)[C@H](CC(=O)O)Nc1cc(-n2ccnc2)c2ccc(Cl)c(Cl)c2n1 [I-188] | 2000 to 30000 |
| Cc1cc(-n2ccnc2)c2ccc(Cl)c(Cl)c2n1 [I-405, 7,8-dichloro-4-(1H-imidazol-1-yl)-2-methylquinoline] | 2000 to 30000 |
| NC1CCCN(c2cc(-n3ccnc3)c3ccc(Cl)cc3n2)C1 (stereo not shown) [I-108, 1-(7-chloro-4-(1H-imidazol-1-yl)quinolin-2-yl)piperidin-3-amine] | > 30000 |
| NS(=O)(=O)N1CCOC(CNc2cc(-n3ccnc3)c3ccc(Cl)c(Cl)c3n2)C1 (stereo not shown) [I-219, 2-(((7,8-dichloro-4-(1H-imidazol-1-yl)quinolin-2-yl)amino)methyl)morpholine-4-sulfonamide] | < 2000 |
| NS(=O)(=O)CCNc1cc(NCC(=O)O)nc2c(Cl)c(Cl)ccc12 [I-319, (7,8-dichloro-4-((2-sulfamoylethyl)amino)quinolin-2-yl)glycine] | > 30000 |
| O=C(O)c1ccccc1-c1cc(-n2ccnc2)c2ccc(Cl)cc2n1 [I-13] | > 30000 |
| C[C@H](CO)N(C)c1cc(-n2ccnc2)c2ccc(Cl)c(Cl)c2n1 [I-242] | < 2000 |
| O=C(O)[C@H]1CCN1c1cc(-c2cn[nH]c2)c2ccc(Cl)c(Cl)c2n1 [I-359] | 2000 to 30000 |
| O=C(O)C(Cc1ccc(O)cc1)Nc1cc(-n2ccnc2)c2ccc(Cl)c(Cl)c2n1 (stereo not shown) [I-169] | < 2000 |
| CC(=O)OCC(=O)NC1CCCN(c2cc(-n3ccnc3)c3ccc(Cl)cc3n2)C1 (stereo not shown) [I-395, 2-((1-(7-chloro-4-(1H-imidazol-1-yl)quinolin-2-yl)piperidin-3-yl)amino)-2-oxoethyl acetate] | 2000 to 30000 |
| O=C(O)CC1CCN(c2cc(-n3ccnc3)c3ccc(Cl)cc3n2)C1 (stereo not shown) [I-446] | 2000 to 30000 |

| SMILES | IC50 [nM] |
| --- | --- |
| O=S(=O)(NC1CCCN(c2cc(-n3ccnc3)c3ccc(Cl)cc3n2)C1)c1ncc[nH]1 (stereo not shown) [I-101] | < 2000 |
| COC(=O)C1CCCN(c2cc(-n3ccnc3)c3ccc(Cl)cc3n2)C1 (stereo not shown) [I-126] | 2000 to 30000 |
| O=C(O)c1cccc(COc2cc(-n3ccnc3)c3ccc(Cl)cc3n2)c1 [I-281] | 2000 to 30000 |
| NS(=O)(=O)CCNc1cc(-c2cn[nH]c2)c2cc(Cl)cc(Cl)c2n1 [I-264] | < 2000 |
| CN(C)C(=O)[C@@H]1CCCN1c1cc(-n2ccnc2)c2ccc(Cl)c(Cl)c2n1 [I-453] | > 30000 |
| O=C(C[C@@H]1CCCN1c1cc(-c2cn[nH]c2)c2ccc(Cl)c(Cl)c2n1)N1CCC[C@H]1CO [I-454] | < 2000 |
| OCC1COCCN1c1cc(-n2ccnc2)c2ccc(Cl)c(Cl)c2n1 (stereo not shown) [I-97] | 2000 to 30000 |
| O=C(O)c1cc(C(=O)O)cc(-c2cc(-n3ccnc3)c3ccc(Cl)cc3n2)c1 [I-28] | < 2000 |
| OCCCc1cc(-c2cn[nH]c2)c2ccc(Cl)c(Cl)c2n1 [I-271, 3-(7,8-dichloro-4-(1H-pyrazol-4-yl)quinolin-2-yl)propan-1-ol] | 2000 to 30000 |
| NS(=O)(=O)CCNc1ccc2ccc(Cl)c(Cl)c2n1 [I-296] | > 30000 |
| Brc1ccc2c(-n3ccnc3)cc(-c3cccnc3)nc2c1 [I-384] | 2000 to 30000 |
| Oc1ccc(-c2cc(-n3ccnc3)c3ccc(Cl)cc3n2)cn1 [I-58] | > 30000 |
| CC(C)N(CCS(=O)(=O)O)c1cc(-n2ccnc2)c2ccc(Cl)c(Cl)c2n1 [I-165] | < 2000 |
| O=C(O)C[C@@H](Nc1cc(-n2ccnc2)c2ccc(Cl)c(Cl)c2n1)c1ccccc1 [I-189] | 2000 to 30000 |
| Clc1ccc2c(-c3cncnc3)cc(-c3ccccc3)nc2c1 [I-71] | > 30000 |
| O=C(NCCO)[C@@H]1CCCN1c1cc(-n2ccnc2)c2ccc(Cl)c(Cl)c2n1 [I-452] | 2000 to 30000 |
| Clc1ccc2c(-n3ccnc3)cc(NCCN3CCOCC3)nc2c1Cl [I-215] | 2000 to 30000 |
| CN(CCS(N)(=O)=O)c1ccc2ccc(Cl)c(Cl)c2n1 [I-161] | > 30000 |
| O=C(O)[C@H]1CCCN(c2cc(-n3ccnc3)c3ccc(Cl)cc3n2)C1 [I-331] | 2000 to 30000 |
| OC1CCN(c2cc(-n3ccnc3)c3ccc(Cl)c(Cl)c3n2)CC1 [I-132] | 2000 to 30000 |
| O=c1[nH]c2cc(-c3cc(-n4ccnc4)c4ccc(Cl)cc4n3)ccc2o1 [I-36] | > 30000 |
| N#CCc1cn(-c2cc(-c3ccccc3)nc3cc(Cl)ccc23)cn1 [I-64] | > 30000 |
| Cn1cc(S(=O)(=O)NC2CCCN(c3cc(-n4ccnc4)c4ccc(Cl)cc4n3)C2)cn1 (stereo not shown) [I-109] | > 30000 |
| COC(=O)[C@@H]1C[C@H](O)CN1c1cc(-c2cn[nH]c2)c2ccc(Cl)c(Cl)c2n1 [I-432] | 2000 to 30000 |

Same assay, conditions: Table 3, read-out: cGAS Inhibition Results IC50

| SMILES | IC50 [nM] |
| --- | --- |
| O=C(O)c1ccnn1CC[C@@H]1CCCN1c1cc(-n2ccnc2)c2ccc(Cl)c(Cl)c2n1 [I-729] | < 2000 |
| COC[C@@H]1CC[C@@H](C(=O)O)N1c1cc(-n2ccnc2)c2ccc(Cl)c(Cl)c2n1 [I-463] | 2000 to 30000 |
| O=C(NS(=O)(=O)C(F)F)[C@@H]1CCCN1c1cc(-n2ccnc2)c2ccc(Cl)c(Cl)c2n1 [I-545] | < 2000 |
| O=C(O)C1CCN(C(=O)[C@@H]2CCCN2c2cc(-n3ccnc3)c3ccc(Cl)c(Cl)c3n2)CC1 [I-548] | < 2000 |
| CN(CCN(CCC(=O)O)S(C)(=O)=O)c1cc(-n2ccnc2)c2ccc(Cl)c(Cl)c2n1 [I-634, 3-(N-(2-((7,8-dichloro-4-(1H-imidazol-1-yl)quinolin-2-yl)(methyl)amino)ethyl)methylsulfonamido) propanoic acid] | < 2000 |
| O[C@H]([C@@H]1CCCN1c1cc(-n2ccnc2)c2ccc(Cl)c(Cl)c2n1)C(F)(F)F [I-655, (R)-1-((S)-1-(7,8-dichloro-4-(1H-imidazol-1-yl)quinolin-2-yl)pyrrolidin-2-yl)-2,2,2-trifluoroethan-1-ol] | < 2000 |
| O=C(O)[C@@H]1CC[C@H](c2ccccc2)N1c1cc(-n2ccnc2)c2ccc(Cl)c(Cl)c2n1 [I-487] | < 2000 |
| CN(CC(=O)NCCC(N)=O)c1cc(-n2ccnc2)c2ccc(Cl)c(Cl)c2n1 [I-568] | 2000 to 30000 |
| O=C(C[C@@H]1CCCN1c1cc(-n2ccnc2)c2ccc(Cl)c(Cl)c2n1)NC1CCCNC1=O (stereo partly shown) [I-544] | 2000 to 30000 |
| CN(CCNC(=O)c1cccc(C(=O)O)c1)c1cc(-n2ccnc2)c2ccc(Cl)c(Cl)c2n1 [I-620] | 2000 to 30000 |
| O=[PH](O)OC[C@@H]1CCCN1c1cc(-n2ccnc2)c2ccc(Cl)c(Cl)c2n1 [I-658, ((5)-1-(7,8-dichloro-4-(1H-imidazol-1-yl)quinolin-2-yl)pyrrolidin-2-yl)methyl hydrogen phosphonate] | < 2000 |
| O=C(O)[C@@H]1[C@@H](F)CCN1c1cc(-n2ccnc2)c2ccc(Cl)c(Cl)c2n1 [I-651] | < 2000 |
| COC(=O)[C@@H]1[C@@H](OCCC(=O)O)CCN1c1cc(-n2ccnc2)c2ccc(Cl)c(Cl)c2n1 [I-870] | 2000 to 30000 |
| O=C(O)c1ccnn1C[C@@H]1CCCN1c1cc(-n2ccnc2)c2ccc(Cl)c(Cl)c2n1 [I-727, (S)-1-((1-(7,8-dichloro-4-(1H-imidazol-1-yl)quinolin-2-yl)pyrrolidin-2-yl)methyl)-1H-pyrazole-5-carboxylic acid] | < 2000 |
| CN(CCS(=O)(=O)NCCC(=O)O)c1cc(-n2ccnc2)c2ccc(Cl)c(Cl)c2n1 [I-630] | < 2000 |
| O[C@@H]([C@@H]1CCCN1c1cc(-n2ccnc2)c2ccc(Cl)c(Cl)c2n1)C(F)(F)F [I-654, (S)-1-((S)-1-(7,8-dichloro-4-(1H-imidazol-1-yl)quinolin-2-yl)pyrrolidin-2-yl)-2,2,2-trifluoroethan-1-ol] | < 2000 |
| CC(=O)O[C@H]1CCN(c2cc(-n3ccnc3)c3ccc(Cl)c(Cl)c3n2)[C@@H]1C(=O)O [I-643, (2S,3S)-3-acetoxy-1-(7,8-dichloro-4-(1H-imidazol-1-yl)quinolin-2-yl)pyrrolidine-2-carboxylic acid] | < 2000 |
| O=C(O)[C@H]1[C@@H](O)CCN1c1cc(-n2ccnc2)c2ccc(Cl)c(Cl)c2n1 [I-499] | < 2000 |
| O=C(O)CCOC[C@H]1CCN(c2cc(-n3ccnc3)c3ccc(Cl)c(Cl)c3n2)C1 [I-772] | 2000 to 30000 |
| C[C@]1(C(=O)O)CCCN1c1cc(-n2ccnc2)c2ccc(Cl)c(Cl)c2n1 [I-456] | > 30000 |
| CN(CCS(=O)(=O)N1CCCC(C(=O)O)C1)c1cc(-n2ccnc2)c2ccc(Cl)c(Cl)c2n1 (stereo not shown) [I-631] | < 2000 |
| O=C(O)CCOC[C@@H]1CCCN1c1cc(-c2ccoc2)c2ccc(Cl)c(Cl)c2n1 [I-824] | > 30000 |
